Results taken from ChEMBL document CHEMBL1125480, “Studies on antidiabetic agents. 11. Novel thiazolidinedione derivatives as potent hypoglycemic and hypolipidemic agents” (1992).

What was measured:
Type in all cases: functional
[1] = organism: Mus musculus; test: Effective dose to reduce 25% of glucose levels in blood
[2] = organism: Mus musculus; test: Effective dose to reduce 25% of triglyceride levels in plasma
[3] = organism: Mus musculus; test: Maximum reduction in blood glucose levels in KKA mice at a dosage of 0.001% in diet
[4] = organism: Mus musculus; test: Maximum reduction in blood glucose levels in KKA mice at a dosage of 0.005% in diet
[5] = organism: Mus musculus; test: Maximum reduction in plasma triglyceride levels in KKA mice at a dosage of 0.001% in diet
[6] = organism: Mus musculus; test: Maximum reduction in plasma triglyceride levels in KKA mice at a dosage of 0.005% in diet
[7] = organism: Mus musculus; test: Compound was tested for maximum reduction in plasma triglyceride levels in KKA mice at a dosage of 0.005% in diet

SMILES	ED25 ([1]; Mus musculus, Blood)	ED25 [2]	Reduction [3]	Reduction [4]	Reduction [5]	Reduction [6]	ED25 [1]	Reduction [7]
Cc1oc(-c2ccccc2)nc1C(O)COc1ccc(/C=C2\SC(=O)NC2=O)cc1 (centres undefined)	0.9 mg/kg/day	0.3 mg/kg/day	36%	56%	54%	60%	–	–
Cc1oc(-c2ccccc2)nc1COc1ccc(CC2SC(=O)NC2=O)cc1 (centres undefined)	3 mg/kg/day	5 mg/kg/day	23%	21%	17%	44%	–	–
Cc1oc(-c2cccs2)nc1CCOc1ccc(CC2SC(=O)NC2=O)cc1 (centres undefined)	0.09 mg/kg/day	0.3 mg/kg/day	50%	51%	41%	72%	–	–
Cc1oc(-c2ccccc2)nc1C(O)COc1ccc(CC2SC(=O)NC2=O)cc1 (centres undefined)	0.05 mg/kg/day	0.1 mg/kg/day	54%	58%	62%	81%	–	–
Cc1oc(CCOc2ccc(CC3SC(=O)NC3=O)cc2)nc1-c1ccccc1 (centres undefined)	–	–	–	54%	–	60%	–	–
CC1(COc2ccc(CC3SC(=O)NC3=O)cc2)CCCCC1 (centres undefined) [CIGLITAZONE]	31 mg/kg/day	25 mg/kg/day	–	–	–	–	–	–
COc1ccc(-c2nc(CCOc3ccc(CC4SC(=O)NC4=O)cc3)c(C)o2)cc1 (centres undefined)	0.3 mg/kg/day	0.6 mg/kg/day	53%	55%	63%	72%	–	–
CCc1oc(-c2ccccc2)nc1CCOc1ccc(/C=C2\SC(=O)NC2=O)cc1	–	–	–	54%	–	59%	–	–
Cc1nc(CCOc2ccc(CC3SC(=O)NC3=O)cc2)co1 (centres undefined)	–	3 mg/kg/day	13%	37%	20%	42%	5 mg/kg/day	–
CC(C)c1nc(CCOc2ccc(CC3SC(=O)NC3=O)cc2)cs1 (centres undefined)	–	–	–	56%	–	45%	–	–
CCc1ccc(CCOc2ccc(CC3SC(=O)NC3=O)cc2)nc1.Cl (centres undefined) [PIOGLITAZONE HYDROCHLORIDE]	6 mg/kg/day	6 mg/kg/day	–	–	–	–	–	–
Cc1nc(CCOc2ccc(CC3SC(=O)NC3=O)cc2)oc1-c1ccccc1 (centres undefined)	–	–	–	18%	–	7%	–	–
Cc1oc(-c2cccs2)nc1CCOc1ccc(/C=C2\SC(=O)NC2=O)cc1	–	–	–	55%	–	57%	–	–
CCc1nc(CCOc2ccc(CC3SC(=O)NC3=O)cc2)cs1 (centres undefined)	–	–	–	55%	–	37%	–	–
O=C1NC(=O)C(Cc2ccc(OCc3csc(-c4cccnc4)n3)cc2)S1 (centres undefined)	–	–	–	25%	–	30%	–	–
COc1ccc(-c2nc(CCOc3ccc(CC4SC(=O)NC4=O)cc3)c(C)o2)cc1OC (centres undefined)	0.5 mg/kg/day	0.6 mg/kg/day	52%	–	54%	–	–	–
O=C1NC(=O)C(Cc2ccc(OCc3csc(-c4ccccc4)n3)cc2)S1 (centres undefined)	6 mg/kg/day	8 mg/kg/day	11%	28%	3%	–	–	32%
CCCc1nc(COc2ccc(CC3SC(=O)NC3=O)cc2)co1 (centres undefined)	–	–	–	12%	–	29%	–	–
Cc1nc(CCOc2ccc(CC3SC(=O)NC3=O)cc2)cs1 (centres undefined)	4 mg/kg/day	4 mg/kg/day	17%	42%	15%	52%	–	–
Cc1oc(-c2ccccc2)nc1CCOc1ccc(CC2SC(=O)NC2=O)cc1 (centres undefined)	0.05 mg/kg/day	0.09 mg/kg/day	55%	59%	67%	66%	–	–

SMILES	ED25 ([1]; Mus musculus, Blood)	ED25 [2]	Reduction [3]	Reduction [4]	Reduction [5]	Reduction [6]	ED25 [1]	Reduction [7]
Cc1nc(C(O)COc2ccc(/C=C3\SC(=O)NC3=O)cc2)c(C)o1 (centres undefined)	2.2 mg/kg/day	0.8 mg/kg/day	26%	59%	37%	61%	–	–
Cc1oc(CCOc2ccc(CC3SC(=O)NC3=O)cc2)nc1CC(C)C (centres undefined)	–	–	–	53%	–	43%	–	–
Cc1nc(CCOc2ccc(/C=C3\SC(=O)NC3=O)cc2)cs1	–	–	–	34%	–	5%	–	–
Cc1scnc1CCOc1ccc(CC2SC(=O)NC2=O)cc1 (centres undefined)	–	–	–	52%	–	45%	–	–
Cc1oc(-c2ccccc2)nc1C(=O)COc1ccc(CC2SC(=O)NC2=O)cc1 (centres undefined)	–	–	–	52%	–	67%	–	–
Cc1nc(C(O)COc2ccc(CC3SC(=O)NC3=O)cc2)c(C)o1 (centres undefined)	0.2 mg/kg/day	0.5 mg/kg/day	55%	51%	52%	62%	–	–
Cc1nc(COc2ccc(CC3SC(=O)NC3=O)cc2)cs1 (centres undefined)	–	–	–	19%	–	30%	–	–
CCc1oc(-c2ccccc2)nc1CCOc1ccc(CC2SC(=O)NC2=O)cc1 (centres undefined)	0.3 mg/kg/day	0.6 mg/kg/day	49%	55%	55%	79%	–	–
Cc1oc(C2(C)CCCCC2)nc1CCOc1ccc(/C=C2\SC(=O)NC2=O)cc1	–	–	–	24%	–	9%	–	–
O=C1NC(=O)C(Cc2ccc(OCCc3nc(-c4ccccc4)oc3CO)cc2)S1 (centres undefined)	–	–	–	31%	–	39%	–	–
O=C1NC(=O)C(Cc2ccc(OCCc3csc(-c4ccccc4)n3)cc2)S1 (centres undefined)	0.5 mg/kg/day	0.3 mg/kg/day	39%	52%	54%	63%	–	–
Cc1nc(CCOc2ccc(CC3SC(=O)NC3=O)cc2)c(C)o1 (centres undefined)	2 mg/kg/day	3 mg/kg/day	27%	55%	10%	56%	–	–
Cc1cccc(-c2nc(CCOc3ccc(CC4SC(=O)NC4=O)cc3)c(C)o2)c1 (centres undefined)	0.05 mg/kg/day	0.06 mg/kg/day	49%	–	61%	–	–	–
Cc1oc(-c2ccccc2Cl)nc1CCOc1ccc(CC2SC(=O)NC2=O)cc1 (centres undefined)	–	–	52%	–	57%	–	–	–
O=C1NC(=O)C(Cc2ccc(OCc3nc4ccccc4s3)cc2)S1 (centres undefined)	–	–	–	43%	–	43%	–	–
Cc1oc(C2CCCCC2)nc1CCOc1ccc(CC2SC(=O)NC2=O)cc1 (centres undefined)	0.2 mg/kg/day	0.6 mg/kg/day	51%	52%	58%	71%	–	–
CSc1cccc(-c2nc(CCOc3ccc(/C=C4\SC(=O)NC4=O)cc3)c(C)o2)c1	–	–	–	52%	–	58%	–	–
O=C1NC(=O)/C(=C/c2ccc(OCCc3csc(-c4ccccc4)n3)cc2)S1	0.6 mg/kg/day	1.3 mg/kg/day	49%	57%	44%	57%	–	–
CCCc1nc(CCOc2ccc(CC3SC(=O)NC3=O)cc2)co1 (centres undefined)	2 mg/kg/day	2 mg/kg/day	29%	52%	26%	65%	–	–
Cc1oc(-c2ccc(Cl)cc2)nc1CCOc1ccc(/C=C2\SC(=O)NC2=O)cc1	–	–	–	54%	–	58%	–	–

SMILES	ED25 ([1]; Mus musculus, Blood)	ED25 [2]	Reduction [3]	Reduction [4]	Reduction [5]	Reduction [6]	ED25 [1]	Reduction [7]
Cc1oc(C2CCCCC2)nc1C(O)COc1ccc(CC2SC(=O)NC2=O)cc1 (centres undefined)	–	–	–	49%	–	67%	–	–
Cc1oc(-c2ccco2)nc1COc1ccc(CC2SC(=O)NC2=O)cc1 (centres undefined)	–	–	–	43%	–	35%	–	–
Cc1oc(-c2ccccc2)nc1COc1ccc(/C=C2\SC(=O)NC2=O)cc1	–	–	–	37%	–	40%	–	–
Cc1nc(C(=O)COc2ccc(/C=C3\SC(=O)NC3=O)cc2)c(C)o1	–	–	–	33%	–	29%	–	–
Cc1oc(-c2ccc(O)cc2)nc1CCOc1ccc(CC2SC(=O)NC2=O)cc1 (centres undefined)	–	–	22%	–	26%	–	–	–
Cc1nc(C(=O)COc2ccc(CC3SC(=O)NC3=O)cc2)c(C)o1 (centres undefined)	–	–	–	39%	–	27%	–	–
O=C1NC(=O)C(Cc2ccc(OCCc3coc(C4CCCCC4)n3)cc2)S1 (centres undefined)	1 mg/kg/day	9 mg/kg/day	31%	–	14%	–	–	–
Cc1oc(-c2ccccc2)nc1C(=O)COc1ccc(/C=C2\SC(=O)NC2=O)cc1	–	–	–	45%	–	51%	–	–
O=C1NC(=O)C(Cc2ccc(OCc3coc(-c4ccccc4)n3)cc2)S1 (centres undefined)	3 mg/kg/day	4 mg/kg/day	16%	48%	12%	51%	–	–
CSc1cccc(-c2nc(CCOc3ccc(CC4SC(=O)NC4=O)cc3)c(C)o2)c1 (centres undefined)	–	–	–	52%	–	67%	–	–
O=C1NC(=O)C(Cc2ccc(OCc3nc4ccccc4o3)cc2)S1 (centres undefined)	–	–	–	35%	–	24%	–	–
Cc1oc(CCOc2ccc(CC3SC(=O)NC3=O)cc2)nc1C1CCCCC1 (centres undefined)	–	–	–	54%	–	51%	–	–
Cc1nc(COc2ccc(CC3SC(=O)NC3=O)cc2)co1 (centres undefined)	–	–	19%	–	–	1%	–	–
O=C1NC(=O)C(Cc2ccc(OCc3nc(-c4ccccc4)cs3)cc2)S1 (centres undefined)	–	–	–	48%	–	44%	–	–
CCc1oc(CCOc2ccc(CC3SC(=O)NC3=O)cc2)nc1-c1ccccc1 (centres undefined)	–	–	–	46%	–	51%	–	–
O=C1NC(=O)C(Cc2ccc(OCCc3csc(C4CCCCC4)n3)cc2)S1 (centres undefined)	0.8 mg/kg/day	3 mg/kg/day	43%	–	33%	–	–	–
CCc1oc(C)nc1CCOc1ccc(CC2SC(=O)NC2=O)cc1 (centres undefined)	3 mg/kg/day	5 mg/kg/day	15%	46%	0%	45%	–	–
Cc1oc(-c2ccccc2)nc1CCOc1ccc(/C=C2\SC(=O)NC2=O)cc1	0.4 mg/kg/day	0.2 mg/kg/day	55%	–	65%	–	–	–
Cc1oc(-c2ccccc2)nc1CCCOc1ccc(CC2SC(=O)NC2=O)cc1 (centres undefined)	–	–	–	21%	–	29%	–	–
